Entries after “also recorded” stand apart in the source; their conditions may differ.
Key:
[1] = target: T1, cytochrome P450 2C8 (Homo sapiens, UniProt P10632); experiment: Cytochrome inhibition in human liver microsomes, 2C8; format: in vitro ADME; conditions: substrate Paclitaxel, read-out: IC50, 2C8 (PSMA-Abi)
T1 construct: isoenzyme activity in human liver microsomes using conventional sample substrates and HPLC-MS/MS detection; from tissue; host or cells: human liver microsomes
T1 sequence (P10632 1-490): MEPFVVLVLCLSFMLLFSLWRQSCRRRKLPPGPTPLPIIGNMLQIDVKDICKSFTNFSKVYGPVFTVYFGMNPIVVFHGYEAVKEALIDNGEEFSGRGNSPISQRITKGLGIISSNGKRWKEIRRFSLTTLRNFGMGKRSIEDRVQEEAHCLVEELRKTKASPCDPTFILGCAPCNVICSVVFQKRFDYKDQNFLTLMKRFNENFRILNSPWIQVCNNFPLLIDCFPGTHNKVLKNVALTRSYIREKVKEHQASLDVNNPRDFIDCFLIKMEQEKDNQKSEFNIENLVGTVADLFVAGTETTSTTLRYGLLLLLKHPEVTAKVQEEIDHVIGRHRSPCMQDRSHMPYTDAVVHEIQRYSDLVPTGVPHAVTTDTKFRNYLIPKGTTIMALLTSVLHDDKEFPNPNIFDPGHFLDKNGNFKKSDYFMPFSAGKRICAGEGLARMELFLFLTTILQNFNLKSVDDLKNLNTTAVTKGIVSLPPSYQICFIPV
From the text: To assess the effect of drugs on liver cytochrome activity in drug development, test systems with recombinant enzymes and fluorescent substrates as well as microsomes with metabolic substrates and HPLC-MS/MS analysis were used. The present study aimed to investigate the effect of targeted delivery drugs specific to malignant prostate cells on cytochrome P450 (CYP450) isoenzyme activity in human liver microsomes using conventional sample substrates and HPLC-MS/MS detection. Detailed methodological parameters are described in the Supplementary Material.

[2] = Acute toxicity in mice; format: in vivo
Method: White, outbred male mice (ICR) about 2 months old weighing 19–21 g were used. Conjugate PSMA-Abi (2000 mg/kg) was formulated with 1% starch gel solution. The mixture was administrated intragastrically in an amount not exceeding 0.5 mL, and in portions if necessary. The control group was administered 1% starch gel solution. Animals were kept under controlled environmental conditions: air temperature 20–26 °C and relative humidity 30–70%. Lighting in the rooms was artificial (a cycle of 12 h of light, 12 h of darkness). Before the start of the study, animals were divided into groups of 10 animals per group. The distribution was made such that the average masses of groups of animals of one species differed by no more than 10%. Before the experiment concerning the determination of acute toxicity, the animals were deprived of food and water (mice for 2 h) and then weighed. The duration of observation of laboratory animals was 14 days. During this period, visible signs of intoxication were evaluated. Dose selection was carried out based on 22Rv1 xenograft experiments with the maximum effective dose for mice of 500 mg/kg.

[3] = Pharmacokinetics in rats; format: in vivo
Method: The pharmacokinetic parameters were studied for healthy, outbred, adult, male, albino rats (Wistar) about 3 months old weighing 190–210 g. The experiment included 3 rats for preparation. The formulation of conjugate PSMA-Abi was the same as for the acute toxicity evaluation. Administration dose was 1000 mg/kg.
Blood samples were taken from the tail vein of rats in a volume of 0.2 mL in polyethylene micro-tubes with a capillary up to 0.5 mL by trimming the tip of the tail. K2EDTA was used as an anticoagulant. During the study, a total of 48 blood samples from 3 animals (16 samples from each animal) were selected for PSMA-Abi.
Immediately after taking a blood sample, the tube was carefully inverted several times to mix the contents (anticoagulant). The plasma was then separated by centrifugation at 1500× g for 10 min at a temperature of +4 °C. Centrifugation was performed no later than 15 min after sampling each blood sample. The studied conjugate PSMA-Abi was determined in the blood plasma samples of rats and rabbits by high-performance liquid chromatography (Agilent 1200) with tandem mass spectrometric detection (QTrap 4500 tandem mass spectrometer) with preliminary isolation of the analyte from the biomaterial. Detailed method parameters are described in Table S6.

[4] = tested on: 22Rv1 prostate cancer subcutaneous xenograft; experiment: 22Rv1 human tumor xenograft mouse model; format: in vivo, Balb/c nude mice; conditions: 22Rv1 xenografts
Method: Male, 6–8 week old Balb/c nude mice with body weight range of 20–22 g were purchased from N.N.Blokhin Cancer Research Center. Animals were kept in plastic cages equipped with lids with feeding recesses, air filters, and feed dividers at 2–3 mice per cage.
Mice were injected subcutaneously in the right and left flanks with 1 × 10^7 22Rv1 cells in RPMI-1640 medium 0.2 mL supplemented with 0.2 mL Corning Matrigel® matrix (Corning, NY, USA) in a total volume of 400 μL. When the average size of the tumors reached ~100 mm^3, mice were randomly divided into three groups, with five mice per group, including a vehicle group (1% starch paste) and two treatment groups: PSMA-Abi 500 mg/kg/day and AbiAc 200 mg/kg/day for 14 days. The drugs were administered orally, and all compounds were formulated with 1% starch paste. Following the treatment, the primary tumor size was measured twice weekly with a micro-caliper, and the tumor volume was calculated using the formula: Volume = π/6 × length × width × height. Treatment outcome was based on percentage of tumor growth inhibition (%TGI), defined as the percent difference between the median tumor volumes (MTVs) of mice in the treated and control groups. Percent TGI was calculated using the following formula: %TGI = [1 − (MTV treatment group/MTV control)] 100%. All data are presented as means ± SD. Statistical analyses of in vivo research were performed using SPSS Statistics V. 22.0, comparing continuous variables by non-parametrical Mann–Whitney U. * p ≤ 0.05 was considered as significant in comparison with the control.

[5] = mice males, 2000 mg/kg single, M±SD
[6] = single oral administration, mean
[7] = single peroral 1000 mg/kg, Mean ± SD
[8] = oral x14, PSMA-Abi 500, AbiAc 200 mg/kg/day

## C[C@]12CC[C@H](OC(=O)CCCc3cn(CCCNC(=O)[C@H](Cc4ccc(O)cc4)NC(=O)[C@H](Cc4ccccc4)NC(=O)CCC(=O)NCCCCCC(=O)N(CCCC[C@H](NC(=O)N[C@@H](CCC(=O)O)C(=O)O)C(=O)O)Cc4cccc(Cl)c4)nn3)CC1=CC[C@@H]1[C@@H]2CC[C@]2(C)C(c3cccnc3)=CC[C@@H]12 [PSMA-Abi]
[1]
  IC50: 4.4 ± 1.1 µM
[2]; [5]
  weight dynamic, % of starting weight, 5 days: 17.5±7.4%
  weight dynamic, % of starting weight, 10 days: 30.9±11.5%
  weight dynamic, % of starting weight, 14 days: 30.7±17.9%
[2]; mice, 2000 mg/kg single dose, by the 14th day, control 50
  growth rate (body weight), % of initial weight: 30%
[2]; mice, 2000 mg/kg single dose, intragastric, 14 days observation, 2000 mg/kg
  animal death: No animal death was observed; also recorded: without animal death
[2]; mice, single dose
  tolerable dose: 2000 mg/kg
[3]; oral 1000 mg/kg
  maximum plasma concentrations, range over animals: 190 to 537 ng/mL
  time plasma concentrations were detected after administration: at least 72 h
  time to maximum plasma concentration, range over animals: 1.5 to 8 h
[3]; [6]
  AUC0–t: 3791 ± 875 ng·h/mL
  AUC0–∞: 4623 ± 1260 ng·h/mL
[3]; single peroral 1000 mg/kg, 1% starch suspension, Mean ± SD
  Cmax: 318 ± 190 ng/mL
[3]; [7]
  AUC0–t: 3791 ± 875 ng·h/mL
  AUC0–∞: 4623 ± 1260 ng·h/mL
  AUCt–∞/AUC0–∞: 21 ± 5%
  Kel: 0.023 ± 0.006 h⁻¹
  MRT0–t: 27.2 ± 1.7 h
  T1/2 (elimination half-life): 31.3 ± 8.7 h
[3]; single peroral 1000 mg/kg, mean
  Tmax: 3.8 h
[4]; oral x14, PSMA-Abi 500 mg/kg/day, AbiAc 200 mg/kg/day, after the end of treatment
  TGImax (tumor growth inhibition): 65%
[4]; [8]
  TGI, day 15 after start of the treatment: 65%
  TGI, day 18 after start of the treatment: 63%
  TGI, day 22 after start of the treatment: 60%
  Tumor volume (M+SE), day 15: 876±197 mm3
  Tumor volume (M+SE), day 18: 1063±195 mm3
  Tumor volume (M+SE), day 22: 1294±201 mm3
[4]; start of treatment
  Tumor volume (M+SE), day 0: 110±18 mm3

Reference: publication PMC9783881, “Synthesis and Preclinical Evaluation of Small-Molecule Prostate-Specific Membrane Antigen-Targeted Abiraterone Conjugate” (Molecules, 2022)
